What is called inhibition is the relative decrease from the control value, in per cent.

One experiment relates to Bacillus Substilis. Conditions: against Bacillus Substilis; cited from earlier work.
In another experiment the test system is force-induced pain. Put plainly: Analgesy-meter force-induced pain in rats. As to conditions: mean ± SEM, six rats. The class given is in vivo, rat. As to the method:
Analgesy-meter induced pain: The analgesic effect of the powder was tested in rat of either sex, using an Ugo Basile Analgesy meter (No. 32725) (21025 Comerio-[…], Italy). This method involves the application of force to the paw of the rat using the Analgesy-meter, which exerts a force that increases at a constant rate. The rat was gently placed between the plinth and plunger. The instrument was switched on and a constant motor rate was used to drive the plunger on to the paw of the rat. When the rat struggles, the instrument is switched off and the force at which the animal felt pain was read on a scale calibrated in grams ×10 by a pointers. The pre-treatment and the after treatment weight causing pain was determined for each rat. […]

The subject of experiment [1] is λ carrageenin induced edema. Briefly: λ carrageenin induced paw edema in rats. In kind it is in vivo, rat. As to the method:
Carrageenin induced paw edema: Rats were injected with 0.1 ml of 1% λ carrageenin (St.-Louis, Mo.) into the subplantar side of the left hind paw. The paw was marked with ink at the level of the lateral malleolus and dipped in perspex cell up to this mark. The paw volume was measured with an Ugo Basile Plethysmometer (No: 61402) (7140 Comerio-varese, Italy) immediately and 3 h after injecting the λ carrageenin suspension. […] Significant reductions in the paw volume compared to vehicle treated control animals were considered as anti-inflammatory response. Percentage inhibition of oedema was calculated as follows: % Inhibition=(1−VT/VC)×100
VT=Paw volume in drug treated rats, VC=Paw volume in control group of rats.
(In general: In the carrageenan paw model, swelling and tenderness develop within hours.)

The subject of a further experiment is interleukin-1 production. Conditions: Chem. Pharm. Bull. 1992, 40,2041; cited from earlier work.

Marks after values point to notes of the source that are not given here.

Take `C[C@@H]1O[C@@H](Oc2ccc(CN=C=S)cc2)[C@H](O)[C@H](O)[C@H]1O` [4-(α-L Rhamnosyloxy benzylisothiocynate]: the Antibacterial activity result in the experiment with Bacillus Substilis is given as “exhibited antibacterial activity”.
Turning to `CC(C)Cc1ccc(C(C)C(=O)O)cc1` (stereo not drawn) [Ibuprofen], the “Weight causing pain (g) After Administration” value with force-induced pain (100 mg/kg) is 161.1 ± 7.9^b g. The “Weight causing pain (g) Before Administration” value in the experiment with force-induced pain (pre-treatment value of 100 mg/kg group) came out at 84.7 ± 5.7 g.
Take `COc1ccc2c(c1)c(CC(=O)O)c(C)n2C(=O)c1ccc(Cl)cc1` [Indomethacin]: in experiment [1] (100 mg/kg, mean ± SEM, six rats), the “Paw volume (ml) at 3h λ carrageenin” value was 0.15 ± 0.02 mL. The molecule further yielded an inhibition at 100 mg/kg in experiment [1] (Rattus norvegicus, 3 h after λ carrageenin, vs control) of 84.7%.
Take Pongapipnone A: the “Inhibition of interleukin-1 production” value in the experiment on interleukin-1 production is “inhibited interleukin-1 production”.

(Values after patent publication US20070172529A1, “Herbal formulation for the treatment of piles” (COUNCIL OF SCIENTIFIC AND INDUSTRIAL RESEARCH, priority 2004, published 2007).)
